From the supplement of paper PMC10307832

Columns and labels:
Assay in all cases: relative viability (nuclei count vs DMSO), 5 days (fraction); higher = more cells survive
NCI-H1734 = test system: NCI-H1734
In short: (§1)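 Relative viability is defined as nuclei in treated wells over nuclei in vehicle wells. Duplicate plates were run and medians reported. Lung cancer cell lines in 1536-well plates were dosed by pin tool one day after seeding, with one drug or with a fixed anchor-drug dose plus five library-drug doses (not always all listed) in √10 steps, and nuclei were counted after 5 days.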

LCLC-97TM1 = test system: LCLC-97TM1
In short: as §1

NCI-H2085 = test system: NCI-H2085
In short: as §1

SW 1573 = test system: SW 1573
In short: as §1

NCI-H647 = test system: NCI-H647
In short: as §1

EMC-BAC-2 = test system: EMC-BAC-2
In short: as §1

NCI-H2023 = test system: NCI-H2023
In short: as §1

NCI-H661 = test system: NCI-H661
In short: as §1

NCI-H322M = test system: NCI-H322M
In short: as §1

EPLC-272H = test system: EPLC-272H
In short: as §1

NCI-H1993 = test system: NCI-H1993
In short: as §1

LXF-289 = test system: LXF-289
In short: as §1

SK-LU-1 = test system: SK-LU-1
In short: as §1

H3255 = test system: H3255
In short: as §1

NCI-H1915 = test system: NCI-H1915
In short: as §1

HOP-62 = test system: HOP-62
In short: as §1

PC-14 = test system: PC-14
In short: as §1

NCI-H2126 = test system: NCI-H2126
In short: as §1

NCI-H2009 = test system: NCI-H2009
In short: as §1

NCI-H727 = test system: NCI-H727
In short: as §1

NCI-H1563 = test system: NCI-H1563
In short: as §1

NCI-H2347 = test system: NCI-H2347
In short: as §1

## O=c1cc(-c2cccc3c2Sc2ccccc2S3)oc(N2CCOCC2)c1 + CC(C)C[C@H](NC(=O)[C@H](Cc1ccccc1)NC(=O)c1cnccn1)B(O)O [Bortezomib] (partner 0.002 µM)
NCI-H1734; first compound 0.08 µM
  relative viability: 0.865
NCI-H1734; first compound 0.253 µM
  relative viability: 1.06
NCI-H1734; first compound 0.8 µM
  relative viability: 1.05
NCI-H1734; first compound 2.53 µM
  relative viability: 0.844
NCI-H1734; first compound 8 µM
  relative viability: 1.18
LCLC-97TM1; first compound 0.08 µM
  relative viability: 0.732
LCLC-97TM1; first compound 0.253 µM
  relative viability: 0.387
LCLC-97TM1; first compound 0.8 µM
  relative viability: 0.528
LCLC-97TM1; first compound 2.53 µM
  relative viability: 0.344
LCLC-97TM1; first compound 8 µM
  relative viability: 1.16
NCI-H2085; first compound 0.08 µM
  relative viability: 1.01
NCI-H2085; first compound 0.253 µM
  relative viability: 1.11
NCI-H2085; first compound 0.8 µM
  relative viability: 1.14
NCI-H2085; first compound 2.53 µM
  relative viability: 0.94
NCI-H2085; first compound 8 µM
  relative viability: 1.09
SW 1573; first compound 0.08 µM
  relative viability: 0.976
SW 1573; first compound 0.253 µM
  relative viability: 1.13
SW 1573; first compound 0.8 µM
  relative viability: 1.09
SW 1573; first compound 2.53 µM
  relative viability: 1.05
SW 1573; first compound 8 µM
  relative viability: 1.09
NCI-H647; first compound 0.08 µM
  relative viability: 0.978
NCI-H647; first compound 0.253 µM
  relative viability: 1.3
NCI-H647; first compound 0.8 µM
  relative viability: 1.04
NCI-H647; first compound 2.53 µM
  relative viability: 0.85
NCI-H647; first compound 8 µM
  relative viability: 1.57
EMC-BAC-2; first compound 0.08 µM
  relative viability: 1.03
EMC-BAC-2; first compound 0.253 µM
  relative viability: 1.18
EMC-BAC-2; first compound 0.8 µM
  relative viability: 1.1
EMC-BAC-2; first compound 2.53 µM
  relative viability: 1.03
EMC-BAC-2; first compound 8 µM
  relative viability: 1.1
NCI-H2023; first compound 0.08 µM
  relative viability: 1
NCI-H2023; first compound 0.253 µM
  relative viability: 1.1
NCI-H2023; first compound 0.8 µM
  relative viability: 0.988
NCI-H2023; first compound 2.53 µM
  relative viability: 0.528
NCI-H2023; first compound 8 µM
  relative viability: 0.937
NCI-H661; first compound 0.08 µM
  relative viability: 0.808
NCI-H661; first compound 0.253 µM
  relative viability: 0.935
NCI-H661; first compound 0.8 µM
  relative viability: 0.837
NCI-H661; first compound 2.53 µM
  relative viability: 0.798
NCI-H661; first compound 8 µM
  relative viability: 0.912
NCI-H322M; first compound 0.08 µM
  relative viability: 1.21
NCI-H322M; first compound 0.253 µM
  relative viability: 1.21
NCI-H322M; first compound 0.8 µM
  relative viability: 1.2
NCI-H322M; first compound 2.53 µM
  relative viability: 1.04
NCI-H322M; first compound 8 µM
  relative viability: 1.17
EPLC-272H; first compound 0.08 µM
  relative viability: 0.806
EPLC-272H; first compound 0.253 µM
  relative viability: 1.09
EPLC-272H; first compound 0.8 µM
  relative viability: 1.02
EPLC-272H; first compound 2.53 µM
  relative viability: 0.721
EPLC-272H; first compound 8 µM
  relative viability: 0.802
NCI-H1993; first compound 0.08 µM
  relative viability: 1.12
NCI-H1993; first compound 0.253 µM
  relative viability: 1.21
NCI-H1993; first compound 0.8 µM
  relative viability: 0.972
NCI-H1993; first compound 2.53 µM
  relative viability: 1.04
NCI-H1993; first compound 8 µM
  relative viability: 1.2
LXF-289; first compound 0.08 µM
  relative viability: 0.994
LXF-289; first compound 0.253 µM
  relative viability: 0.976
LXF-289; first compound 0.8 µM
  relative viability: 1.08
LXF-289; first compound 2.53 µM
  relative viability: 0.988
LXF-289; first compound 8 µM
  relative viability: 1.03
SK-LU-1; first compound 0.08 µM
  relative viability: 1.12
SK-LU-1; first compound 0.253 µM
  relative viability: 1.18
SK-LU-1; first compound 0.8 µM
  relative viability: 1.16
SK-LU-1; first compound 2.53 µM
  relative viability: 1.2
SK-LU-1; first compound 8 µM
  relative viability: 1.91
H3255; first compound 0.08 µM
  relative viability: 0.837
H3255; first compound 0.253 µM
  relative viability: 0.835
H3255; first compound 0.8 µM
  relative viability: 0.837
H3255; first compound 2.53 µM
  relative viability: 0.646
H3255; first compound 8 µM
  relative viability: 1.07
NCI-H1915; first compound 0.08 µM
  relative viability: 1.07
NCI-H1915; first compound 0.253 µM
  relative viability: 1.03
NCI-H1915; first compound 0.8 µM
  relative viability: 1.09
NCI-H1915; first compound 2.53 µM
  relative viability: 0.974
NCI-H1915; first compound 8 µM
  relative viability: 1.16
HOP-62; first compound 0.08 µM
  relative viability: 0.734
HOP-62; first compound 0.253 µM
  relative viability: 1.27
HOP-62; first compound 0.8 µM
  relative viability: 0.735
HOP-62; first compound 2.53 µM
  relative viability: 0.713
HOP-62; first compound 8 µM
  relative viability: 1.08
PC-14; first compound 0.08 µM
  relative viability: 1.08
PC-14; first compound 0.253 µM
  relative viability: 1.01
PC-14; first compound 0.8 µM
  relative viability: 0.962
PC-14; first compound 2.53 µM
  relative viability: 0.866
PC-14; first compound 8 µM
  relative viability: 0.882
NCI-H2126; first compound 0.08 µM
  relative viability: 1.13
NCI-H2126; first compound 0.253 µM
  relative viability: 1.13
NCI-H2126; first compound 0.8 µM
  relative viability: 1.12
NCI-H2126; first compound 2.53 µM
  relative viability: 1.1
NCI-H2126; first compound 8 µM
  relative viability: 1.2
NCI-H2009; first compound 0.08 µM
  relative viability: 0.936
NCI-H2009; first compound 0.253 µM
  relative viability: 1.1
NCI-H2009; first compound 0.8 µM
  relative viability: 0.952
NCI-H2009; first compound 2.53 µM
  relative viability: 0.871
NCI-H2009; first compound 8 µM
  relative viability: 0.795
NCI-H727; first compound 0.253 µM
  relative viability: 1.1
NCI-H727; first compound 2.53 µM
  relative viability: 0.66
NCI-H727; first compound 8 µM
  relative viability: 0.972
NCI-H1563; first compound 0.08 µM
  relative viability: 0.773
NCI-H1563; first compound 0.253 µM
  relative viability: 0.857
NCI-H1563; first compound 0.8 µM
  relative viability: 0.767
NCI-H1563; first compound 2.53 µM
  relative viability: 0.92
NCI-H1563; first compound 8 µM
  relative viability: 0.83
NCI-H2347; first compound 0.08 µM
  relative viability: 0.947
NCI-H2347; first compound 0.253 µM
  relative viability: 1.17
NCI-H2347; first compound 0.8 µM
  relative viability: 1.09
NCI-H2347; first compound 2.53 µM
  relative viability: 0.902
NCI-H2347; first compound 8 µM
  relative viability: 1.73
